Experimental data: US20260102503A1, “NANOCOMPOSITES FOR ENHANCED CELLULAR PAYLOAD DELIVERY” (priority 2022, published 2026)
Values after ≈ are worked out from the molar mass of the structure shown.

Legend:
Type in all cases: cell-based
[1] = system: primary alveolar type I epithelial cells (AT1); assay: Cytocompatibility (MTS) in AT1 cells; conditions: 72 hours, 0.0625-1 mg/mL, vs untreated control
Protocol: Primary lung epithelial cells, RAW macrophages, and HUVECs were used to assess toxicity of the nanocomposites. Nanocomposites were prepared as described in for AT1 cells, in which 20,000 cells/well of primary alveolar type I epithelial cells (AT1) were seeded in 48-well plates. After the overnight culture, various groups of particles including blank PLGA NPs, nanofibers only, and nanocomposites (nanofiber coated-PLGA nanoparticles) were given to the cells in triplicate at various concentrations ranging from 0.0625-1 mg/mL. The nanofiber concentration chosen was equivalent to the peptide amount conjugated onto the nanoparticles. After 72 hours, the cells were washed 3 times with PBS, and MTS reagent was applied to the cells to assess the cell viability following the company's instructions.
In this study, primary lung epithelial cells and kidney epithelial cells (Vero E6) were used to assess toxicity from NPs. NF-coated NPs were prepared as described above, in which 4000 cells/well of primary alveolar type I epithelial cells (AT1 cells) and Vero E6 cells were seeded in 96-well plates. After overnight culturing, RDV NCs were added to the cells in triplicate at various concentrations ranging from 0 to 1 mg/mL. An NF to NP ratio of 0.25 was used for the study. […]

[2] = system: MRSA; assay: microbe, parasite or virus in culture; conditions: Staphylococcus aureus, 24 h
[3] = system: AT1 cells; assay: Nanocomposite cellular uptake mechanism study (endocytosis inhibitors, temperature block); conditions: 5 μM, 2 hours pretreatment, vs untreated cells
Protocol: To determine the NC/NP uptake mechanism used by cells, an endocytosis-inhibition examination was performed. Alveolar Type 1 cells were seeded at confluency in 48-well plates and attached overnight at 37° C. in an incubator with 5% CO2. Rhodamine B-loaded nanocomposites were prepared using a similar procedure done for other studies. After 24 hours of seeding, the AT1 cell culture medium was replaced by fresh 1% serum media containing 5 μM of Amiloride, 5 μM of methyl-β-cyclodextran, 5 μg/mL of Filipin III, 5 μM of Cytochalasin-D, 5 μM of Imipramine, 80 μM Dynasore, or 5 mM of Deoxy-glucose (Sigma Aldrich & Cayman Chemical). After 2 hours, fresh complete media with Rho B-labeled nanocomposites at a concentration of 0.5 mg/mL was added. […] Images were acquired using a fluorescent microscope and processed for NP uptake in random areas using 10 images from each inhibitor group with the ImageJ software.
In a similar fashion, to check if the nanocomposites undergo an energy-dependent uptake, temperature block was studied in AT1 cells by preincubating cells at 4° C. for 30 minutes, followed by treatment with fluorescent nanocomposites for 90 minutes at 4° C. Later, fluorescent images were acquired, and the cell lysates were analyzed for quantitative nanocomposite uptake.

Ac-KKKKKKKKKKQWQWQWQWQWQWEEE-NH2 [NFs, K10(QW)6E3]
cytocompatibility (cell viability, MTS) [1]: significant toxicity with concentrations ranging from 0.25-1 mg/mL

CN[C@H](CC(C)C)C(=O)N[C@H]1C(=O)N[C@@H](CC(N)=O)C(=O)N[C@H]2C(=O)N[C@H]3C(=O)N[C@H](C(=O)N[C@H](C(=O)O)c4cc(O)cc(O)c4-c4cc3ccc4O)[C@H](O)c3ccc(c(Cl)c3)Oc3cc2cc(c3O[C@@H]2O[C@H](CO)[C@@H](O)[C@H](O)[C@H]2O[C@H]2C[C@](C)(N)[C@H](O)[C@H](C)O2)Oc2ccc(cc2Cl)[C@H]1O [free vancomycin, vancomycin]
MIC [2]: 2 µg/mL (≈ 1.38 µM)

C=C1[C@@H](C)[C@H]2[C@H](Cc3ccccc3)NC(=O)[C@]23[C@H](OC(C)=O)/C=C/[C@@](C)(O)C(=O)[C@@H](C)C/C=C/[C@H]3[C@@H]1O [cytochalasin-D]
effect of endocytosis inhibitor on cellular uptake of NCs [3]: significant reduction in cellular uptake
